Where two headings read alike, the source gives them in different places.
Assays:
E. coli DHB4 WT = assay: MIC of silver and ebselen on E. coli DHB4 redox phenotypes; type: cell-based, Escherichia coli; conditions: 24 h; for MIC: Escherichia coli, DHB4WT, read-out: MIC of ebselen in the presence of silver
Procedure: (§1) Since Trx and GSH/Grx are major thiol-dependent systems, investigated were the effects of Ag^+ with ebselen in combination on Trx or GSH system-deficient E. coli redox mutants.
(§2) Serial dilutions of ebselen and AgNO3 were added to the individual wells. The minimum inhibitory concentration (MIC) was determined after 24 h culture at 37° C.

E. coli DHB4 oxyR^− = assay: microbe, parasite or virus in culture; type: cell-based, Escherichia coli; conditions: for MIC: read-out: MIC of ebselen in the presence of silver
Procedure: as §1
One major function of GSH and Trx systems is to scavenge ROS to keep cellular redox balance and protect against oxidative stress. The inhibition of the Trx system and depletion of GSH may responsible for the elevation of ROS.
as §2

[1] = test system: E. coli DHB4 gor^−grxA^−B^−C^−; assay: microbe, parasite or virus in culture; type: cell-based, Escherichia coli; conditions: 24 h; for MIC: Escherichia coli, read-out: MIC of ebselen in the presence of silver
Procedure: as §1, §2

E. coli DHB4 gor^− = assay: microbe, parasite or virus in culture; type: cell-based, Escherichia coli; conditions: 24 h; for MIC: Escherichia coli, read-out: MIC of ebselen in the presence of silver
Procedure: as §1, §2

[2] = test system: E. coli DHB4 grxA^−trxA^−; assay: microbe, parasite or virus in culture; type: cell-based, Escherichia coli; conditions: 24 h; for MIC: Escherichia coli, read-out: MIC of ebselen in the presence of silver
Procedure: as §1, §2

E. coli DHB4 gshA^− = assay: microbe, parasite or virus in culture; type: cell-based, Escherichia coli; conditions: for MIC: read-out: MIC of ebselen in the presence of silver
Procedure: as §1, §2

[3] = test system: E. coli DHB4 trxA^−B^−C^−; assay: microbe, parasite or virus in culture; type: cell-based, Escherichia coli; conditions: 24 h; for MIC: Escherichia coli, read-out: MIC of ebselen in the presence of silver
Procedure: as §1, §2

[4] = test system: E. coli DHB4 trxA^−gshA^−; assay: microbe, parasite or virus in culture; type: cell-based, Escherichia coli; conditions: for MIC: read-out: MIC of ebselen in the presence of silver
Procedure: as §1, §2

E. coli DHB4 trxA^− = assay: microbe, parasite or virus in culture; type: cell-based, Escherichia coli; conditions: 24 h; for MIC: Escherichia coli, read-out: MIC of ebselen in the presence of silver
Procedure: as §1, §2

E. coli DHB4 trxB^− = assay: microbe, parasite or virus in culture; type: cell-based, Escherichia coli; conditions: 24 h; for MIC: Escherichia coli, read-out: MIC of ebselen in the presence of silver
Procedure: as §1, §2

E. coli DHB4 trxC^− = assay: microbe, parasite or virus in culture; type: cell-based, Escherichia coli; conditions: for MIC: read-out: MIC of ebselen in the presence of silver
Procedure: as §1, §2

E. coli Trx = molecular target: T1, E. coli Trx (Escherichia coli, UniProt P0AA25); type: cell-based; conditions: Ag^+ or ebselen alone
T1 construct: endogenous in cells; host or cells: E. coli DHB4
T1 sequence (P0AA25 2-109): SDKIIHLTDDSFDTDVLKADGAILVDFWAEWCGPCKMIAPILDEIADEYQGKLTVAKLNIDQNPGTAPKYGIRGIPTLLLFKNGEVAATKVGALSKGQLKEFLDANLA

E. coli TrxR = E. coli TrxR (Escherichia coli, UniProt P0A9P4); type: cell-based; set-up: endogenous in cells; host or cells: E. coli DHB4; conditions: Ag^+ or ebselen alone
Chain of E. coli TrxR (P0A9P4 whole entry): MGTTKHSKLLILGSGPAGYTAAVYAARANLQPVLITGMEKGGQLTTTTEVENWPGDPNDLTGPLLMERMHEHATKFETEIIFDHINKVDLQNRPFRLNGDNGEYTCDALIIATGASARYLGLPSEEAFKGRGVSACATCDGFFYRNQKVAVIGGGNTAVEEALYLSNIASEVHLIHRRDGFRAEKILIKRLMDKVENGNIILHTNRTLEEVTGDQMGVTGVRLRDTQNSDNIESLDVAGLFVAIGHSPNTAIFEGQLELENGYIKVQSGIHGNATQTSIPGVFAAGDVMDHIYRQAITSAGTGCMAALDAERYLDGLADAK
Procedure: E. coli DHB4 cells were grown till the absorbance at OD600 nm, of 0.4 in LB medium, and the bacterial cells were treated with different dilutions of ebselen and AgNO3 for 10 min. Cells were harvested by centrifugation at 6,000 rpm for 5 min and thoroughly washed 3 times with PBS, then cells were re-suspended in lysis buffer (25 mM Tris.HCl, pH 7.5, 100 mM NaCl, 2.5 mM EDTA, 2.5 mM EGTA, 20 mM NaF, 1 mM Na3VO4, 20 mM sodium ß-glycerophosphate, 10 mM sodium pyrophosphate, 0.5% Triton X-100) containing protease inhibitor cocktail and lysed by sonication. The cell lysates were obtained by centrifugation at 13,000 rpm for 20 min and the protein concentration was measured by Lowry protein assay (Bio-Rad DC™).
E. coli DHB4 TrxR activity in cell extracts was measured by a DTNB reduction activity assay.
E. coli DHB4 cells were grown till the absorbance at OD600 nm of 0.4 in LB medium, and the bacterial cells were treated with 80 μM antibiotics and 5 μM AgNO3 for 10 and 60 min, respectively. The cultures treated with 80 μM ebselen and 5 μM AgNO3 were used as the positive control. […] The cell lysates were obtained by centrifugation at 13,000 rpm for 20 min and the protein concentrations were measured by the Lowry protein assay.
E. coli DHB4 TrxR activity in cell extracts was measured by a DTNB reduction activity assay^23.

O=c1c2ccccc2[se]n1-c1ccccc1 [ebselen, 2-phenyl-1,2-benzisoselenazol-3(2H)-one]
not influenced: Trx activities in cell extracts (E. coli Trx) | TrxR activities in cell extracts (E. coli TrxR)
40 µM: MIC (E. coli DHB4 oxyR^−; Escherichia coli, 24 h, Silver 0 μM, oxyR^−, 24 h) | MIC ([1]; Silver 0 μM) | MIC ([2]; Silver 0 μM) | MIC (E. coli DHB4 gshA^−; Escherichia coli, 24 h, Silver 0 μM, gshA^−, 24 h) | MIC ([4]; Escherichia coli, 24 h, Silver 0 μM, trxA^−gshA^−, 24 h)
2 µM: MIC (E. coli DHB4 WT; Silver 5 μM) | MIC (E. coli DHB4 oxyR^−) | MIC (E. coli DHB4 gshA^−) | MIC [4] | MIC (E. coli DHB4 trxC^−; Escherichia coli, 24 h, Silver 5 μM, trxC^−, 24 h)
0.5 µM: MIC (E. coli DHB4 WT; Silver 20 μM) | MIC (E. coli DHB4 oxyR^−; Escherichia coli, 24 h, Silver 10 μM, oxyR^−, 24 h) | MIC ([1]; Silver 10 μM) | MIC (E. coli DHB4 gor^−; Silver 20 μM) | MIC ([2]; Silver 10 μM) | MIC (E. coli DHB4 gshA^−; Escherichia coli, 24 h, Silver 10 μM, gshA^−, 24 h) | MIC ([3]; Silver 10 μM) | MIC ([3]; Silver 20 μM) | MIC ([4]; Escherichia coli, 24 h, Silver 10 μM, trxA^−gshA^−, 24 h) | MIC (E. coli DHB4 trxA^−; Silver 20 μM) | MIC (E. coli DHB4 trxB^−; Silver 10 μM) | MIC (E. coli DHB4 trxB^−; Silver 20 μM) | MIC (E. coli DHB4 trxC^−; Escherichia coli, 24 h, Silver 20 μM, trxC^−, 24 h)
80 µM: MIC (E. coli DHB4 WT; Silver 0 μM) | MIC (E. coli DHB4 gor^−; Silver 0 μM) | MIC ([3]; Silver 0 μM) | MIC (E. coli DHB4 trxA^−; Silver 0 μM) | MIC (E. coli DHB4 trxB^−; Silver 0 μM) | MIC (E. coli DHB4 trxC^−; Escherichia coli, 24 h, Silver 0 μM, trxC^−, 24 h)
8 µM: MIC (E. coli DHB4 WT; Silver 0.625 μM) | MIC (E. coli DHB4 trxC^−; Escherichia coli, 24 h)
4 µM: MIC (E. coli DHB4 WT; Silver 1.25 μM) | MIC (E. coli DHB4 WT; Silver 2.5 μM) | MIC (E. coli DHB4 oxyR^−; Escherichia coli, 24 h) | MIC (E. coli DHB4 gshA^−; Escherichia coli, 24 h) | MIC ([4]; Escherichia coli, 24 h) | MIC (E. coli DHB4 trxC^−)
1 µM: MIC (E. coli DHB4 WT; Silver 10 μM) | MIC (E. coli DHB4 oxyR^−; Escherichia coli, 24 h, Silver 5 μM, oxyR^−, 24 h) | MIC ([1]; Silver 5 μM) | MIC (E. coli DHB4 gor^−; Silver 5 μM) | MIC (E. coli DHB4 gor^−; Silver 10 μM) | MIC ([2]; Silver 5 μM) | MIC (E. coli DHB4 gshA^−; Escherichia coli, 24 h, Silver 5 μM, gshA^−, 24 h) | MIC ([3]; Silver 5 μM) | MIC ([4]; Escherichia coli, 24 h, Silver 5 μM, trxA^−gshA^−, 24 h) | MIC (E. coli DHB4 trxA^−; Silver 5 μM) | MIC (E. coli DHB4 trxA^−; Silver 10 μM) | MIC (E. coli DHB4 trxB^−; Silver 5 μM) | MIC (E. coli DHB4 trxC^−; Escherichia coli, 24 h, Silver 10 μM, trxC^−, 24 h)

O=[N+]([O-])[O-].[Ag+] [silver, silver nitrate]
10 µM: MIC of silver in the presence of ebselen (E. coli DHB4 WT; Ebselen 1 μM) | MIC of silver in the presence of ebselen ([1]; Ebselen 1 μM) | MIC of silver in the presence of ebselen (E. coli DHB4 gor^−; Ebselen 1 μM) | MIC of silver in the presence of ebselen ([2]; Ebselen 1 μM) | MIC of silver in the presence of ebselen ([3]; Ebselen 1 μM) | MIC of silver in the presence of ebselen (E. coli DHB4 trxA^−; Ebselen 1 μM) | MIC of silver in the presence of ebselen (E. coli DHB4 trxB^−; Ebselen 1 μM) | MIC of silver in the presence of ebselen (E. coli DHB4 trxC^−; Ebselen 1 μM, trxC^−, 24 h)
1.25 µM: MIC of silver in the presence of ebselen (E. coli DHB4 WT; Ebselen 4 μM) | MIC of silver in the presence of ebselen (E. coli DHB4 oxyR^−; Ebselen 2 μM, oxyR^−, 24 h) | MIC of silver in the presence of ebselen (E. coli DHB4 gor^−; Ebselen 4 μM) | MIC of silver in the presence of ebselen ([3]; Ebselen 4 μM) | MIC of silver in the presence of ebselen (E. coli DHB4 trxA^−; Ebselen 4 μM) | MIC of silver in the presence of ebselen (E. coli DHB4 trxC^−; Ebselen 4 μM, trxC^−, 24 h)
40 µM: MIC of silver in the presence of ebselen (E. coli DHB4 WT; Ebselen 0 μM) | MIC of silver in the presence of ebselen (E. coli DHB4 gor^−; Ebselen 0 μM) | MIC of silver in the presence of ebselen ([3]; Ebselen 0 μM) | MIC of silver in the presence of ebselen (E. coli DHB4 trxA^−; Ebselen 0 μM) | MIC of silver in the presence of ebselen (E. coli DHB4 trxB^−; Ebselen 0 μM) | MIC of silver in the presence of ebselen (E. coli DHB4 trxC^−; Ebselen 0 μM, trxC^−, 24 h)
0.625 µM: MIC of silver in the presence of ebselen (E. coli DHB4 oxyR^−; Ebselen 4 μM, oxyR^−, 24 h) | MIC of silver in the presence of ebselen ([1]; Ebselen 4 μM) | MIC of silver in the presence of ebselen ([2]; Ebselen 4 μM) | MIC of silver in the presence of ebselen (E. coli DHB4 gshA^−; Ebselen 4 μM, gshA^−, 24 h) | MIC of silver in the presence of ebselen ([4]; Ebselen 4 μM, trxA^−gshA^−, 24 h) | MIC of silver in the presence of ebselen (E. coli DHB4 trxB^−; Ebselen 4 μM)
not influenced: Trx activities in cell extracts (E. coli Trx) | TrxR activities in cell extracts (E. coli TrxR)
20 µM: MIC of silver in the presence of ebselen (E. coli DHB4 oxyR^−; Ebselen 0 μM, oxyR^−, 24 h) | MIC of silver in the presence of ebselen ([1]; Ebselen 0 μM) | MIC of silver in the presence of ebselen ([2]; Ebselen 0 μM) | MIC of silver in the presence of ebselen (E. coli DHB4 gshA^−; Ebselen 0 μM, gshA^−, 24 h) | MIC of silver in the presence of ebselen ([4]; Ebselen 0 μM, trxA^−gshA^−, 24 h)
2.5 µM: MIC of silver in the presence of ebselen ([1]; Ebselen 2 μM) | MIC of silver in the presence of ebselen ([2]; Ebselen 2 μM) | MIC of silver in the presence of ebselen (E. coli DHB4 gshA^−; Ebselen 2 μM, gshA^−, 24 h) | MIC of silver in the presence of ebselen ([3]; Ebselen 2 μM) | MIC of silver in the presence of ebselen ([4]; Ebselen 2 μM, trxA^−gshA^−, 24 h) | MIC of silver in the presence of ebselen (E. coli DHB4 trxA^−; Ebselen 2 μM) | MIC of silver in the presence of ebselen (E. coli DHB4 trxB^−; Ebselen 2 μM)
5 µM: MIC of silver in the presence of ebselen (E. coli DHB4 WT; Ebselen 2 μM) | MIC of silver in the presence of ebselen (E. coli DHB4 oxyR^−; Ebselen 1 μM, oxyR^−, 24 h) | MIC of silver in the presence of ebselen (E. coli DHB4 gor^−; Ebselen 2 μM) | MIC of silver in the presence of ebselen (E. coli DHB4 gshA^−; Ebselen 1 μM, gshA^−, 24 h) | MIC of silver in the presence of ebselen ([4]; Ebselen 1 μM, trxA^−gshA^−, 24 h) | MIC of silver in the presence of ebselen (E. coli DHB4 trxC^−; Ebselen 2 μM, trxC^−, 24 h)

— patent publication US10653717B2, “Antibiotic compositions” (priority 2016, dated 2020)
